test system: Beet Armyworm (Spodoptera exigua, LAPHEG); assay: Bioassay on Beet Armyworm (BAW), 128-well diet tray assay; format: in vivo; details: Beet Armyworm, 128-well diet tray assay, read-out: BAW rating
Protocol: Certain molecules disclosed in this document were tested against BAW and CL using procedures described in the following examples. In the reporting of the results, the “BAW & CL Rating Table” was used (See Table Section).
Bioassays on BAW were conducted using a 128-well diet tray assay. One to five second instar BAW larvae were placed in each well (3 mL) of the diet tray that had been previously filled with approximately 1.5 mL of artificial diet to which 50 μg/cm^2 of the test molecule (dissolved in 50 μL of 90:10 acetone-water mixture) had been applied (to each of eight wells) and then allowed to dry. Trays were covered with a clear self-adhesive cover, vented to allow gas exchange, and held at 25° C., 14:10 light-dark for five to seven days. Percent mortality was recorded for the larvae in each well; activity in the eight wells was then averaged. The results are indicated in the table entitled “Table ABC: Biological Results” (See Table Section).

`CC(C)(C)OC(=O)N(C(=O)OC(C)(C)C)c1c(F)ccc(NC(=O)c2cc(NC(=O)[C@H]3[C@H](c4cc(Cl)cc(Cl)c4)C3(Cl)Cl)ccc2Cl)c1F` (relative stereo) [F468, trans-tert-Butyl-N-((tert-butoxy)carbonyl)-N-(3-(2-chloro-5-(2,2-dichloro-3-(3,5-dichlorophenyl)cyclopropane-1-carboxamido)benzamido)-2,6-difluorophenyl)carbamate] and `CC(C)(C)OC(=O)N(C(=O)OC(C)(C)C)c1c(F)ccc(NC(=O)c2cc(NC(=O)[C@H]3[C@H](c4cc(Cl)c(Cl)c(Cl)c4)C3(Cl)Cl)ccc2Cl)c1F` [F501, tert-Butyl-N-((tert-butoxy)carbonyl)-N-(3-(2-chloro-5-((1R,3R)-2,2-dichloro-3-(3,4,5-trichlorophenyl)cyclopropane-1-carboxamido)benzamido)-2,6-difluorophenyl)carbamate] fall in the same range of pest or weed control at 50 µg/cm2: 0 to 50% for the first, 0 to 50% for the second.

First: CC(C)(C)OC(=O)N1CCc2cc(NC(=O)c3cc(NC(=O)[C@H]4[C@H](c5cc(Cl)cc(Cl)c5)C4(Cl)Cl)ccc3Cl)ccc21 (relative stereo) [F509, tert-Butyl 5-(2-chloro-5-(trans)-(2,2-dichloro-3-(3,5-dichlorophenyl)cyclopropane-1-carboxamido)benzamido)indoline-1-carboxylate]
Second: CC(C)(C)OC(=O)N(C(=O)OC(C)(C)C)c1c(F)ccc(NC(=O)c2cc(NC(=O)[C@H]3[C@H](c4cc(Cl)cc(Cl)c4)C3(Cl)Cl)ccc2Cl)c1F [F499, tert-Butyl-N-((tert-butoxy)carbonyl)-N-(3-(2-chloro-5-((1R,3R)-2,2-dichloro-3-(3,5-dichlorophenyl)cyclopropane-1-carboxamido)benzamido)-2,6-difluorophenyl)carbamate]
The pest or weed control at 50 µg/cm2 of the first is lower: 0 to 50% for the first, 50 to 100% for the second.

`CCc1cc(C(F)(C(F)(F)F)C(F)(F)C(F)(F)F)cc(CC)c1NC(=O)c1cc(NC(=O)[C@H]2[C@H](c3cc(Cl)cc(Cl)c3)C2(Cl)Cl)ccc1Cl` (relative stereo) [PF59, trans-2-Chloro-5-(2,2-dichloro-3-(3,5-dichlorophenyl)cyclopropane-1-carboxamido)-N-(2,6-diethyl-4-(perfluorobutan-2-yl)phenyl)benzamide] and `CCc1cc(C(F)(C(F)(F)F)C(F)(F)F)cc(CC)c1NC(=O)c1cc(NC(=O)[C@H]2[C@H](c3cc(Cl)cc(Cl)c3)C2(Cl)Cl)ccc1Cl` (relative stereo) [PF61, trans-2-Chloro-5-(2,2-dichloro-3-(3,5-dichlorophenyl)cyclopropane-1-carboxamido)-N-(2,6-diethyl-4-(perfluoropropan-2-yl)phenyl)benzamide] fall in the same range of pest or weed control at 50 µg/cm2: 0 to 50% for the first, 0 to 50% for the second.

same assay, conditions: Species BAW (Beet Armyworm), read-out: BAW (Biological Results, rating)

`Cc1cc(N(C)C(=O)OC(C)(C)C)ccc1NC(=O)c1cc(NC(=O)[C@H]2[C@H](c3ccc(F)c(Cl)c3)C2(Cl)Cl)ccc1Cl` (relative stereo) [F219, trans-tert-Butyl-(4-(2-chloro-5-(2,2-dichloro-3-(3-chloro-4-fluorophenyl)cyclopropane-1-carboxamido)benzamido)-3-methylphenyl)(methyl)carbamate] and `Cc1cc(N(C)C(=O)OC(C)(C)C)ccc1N(C)C(=O)c1cc(NC(=O)C2C(c3cc(Cl)c(Cl)c(Cl)c3)C2(Cl)Cl)ccc1Cl` [F221, trans-tert-Butyl-(4-(2-chloro-5-((1R,3R)-2,2-dichloro-3-(3,4,5-trichlorophenyl)cyclopropane-1-carboxamido)-N-methylbenzamido)-3-methylphenyl)(methyl)carbamate] fall in the same range of pest or weed control at 50 µg/cm2: 50 to 100% for the first, 50 to 100% for the second.

`CNc1ccc(NC(=O)c2cc(NC(=O)[C@H]3[C@H](c4cc(Cl)cc(Cl)c4)C3(Cl)Cl)c(Cl)cc2Cl)cc1` (relative stereo) [F256, trans-2,4-dichloro-5-(2,2-dichloro-3-(3,5-dichlorophenyl)cyclopropane-1-carboxamido)-N-(4-(methylamino)phenyl)benzamide] gave a pest or weed control at 50 µg/cm2 of 0 to 50%.

From patent publication US10219516B2, “Molecules having pesticidal utility, and intermediates, compositions, and processes, related thereto” (priority 2015, dated 2019)
